The test system of assay [1] is maximum electroshock seizure (MES) model. Briefly: Maximum electroshock seizure (MES) model test. The format is in vivo, mice. Conditions: for responders at 50 mg/kg / responders at 100 mg/kg: Mus musculus, po, 1 h, Slc: ddY male mice, 3 per group, electrical stimulation 1 hour after administration, inhibition of hind limb extension, read-out: MES (positive number/tested number) (converted); for responders at 50 mg/kg: 50 mg/kg oral; for responders at 100 mg/kg: 100 mg/kg oral; for anticonvulsant action in maximum electroshock seizure (MES) model test: mice, oral 50 or 100 mg/kg, 1 hour after administration. The source says: In order to evaluate the antiepileptic activity of each drug, maximum electroshock seizure (MES) model, subcutaneously pentetrazol-injected model (scPTZ), and amygdala kindling model in rats were used because they show a good clinical prediction.
Test 1: Test with Maximum Electroshock Seizure (MES) Model
Test 1 evaluates the anticonvulsant action of medicaments. Animal model used herein represents the clinical phenotypes of generalized tonic seizure and secondarily generalized tonic-clonic seizure. Test compounds (50 or 100 mg/kg) were orally administered to Slc: ddY male mice (3 mice in each group, body weight 20-30 g). After an hour of administration, their corneas were electrically stimulated (60 Hz, 25 mA, 0.2 second) to induce tonic convulsion (tonic extensor in their hind limbs). […] To the control mice, 0.5% tragacanth solution or 0.5% methylcellulose solution was administered.

The test system of assay [2] is subcutaneously pentetrazol-injected model (scPTZ). As to the kind of experiment: Subcutaneously pentetrazol-injected model (scPTZ) test. Type of assay: in vivo, mice. Conditions: pentetrazol 85 mg/kg s.c. after 1 hour; for responders at 50 mg/kg / responders at 100 mg/kg: Mus musculus, po, 1 h, Slc: ddY male mice, 3 per group, observed 30 minutes for clonic convulsion, read-out: scPTZ (positive number/tested number) (converted); for responders at 50 mg/kg: 50 mg/kg oral; for responders at 100 mg/kg: 100 mg/kg oral; for anticonvulsant action in subcutaneously pentetrazol-injected model (scPTZ) test: mice, oral 50 or 100 mg/kg. The text has this: In order to evaluate the antiepileptic activity of each drug, maximum electroshock seizure (MES) model, subcutaneously pentetrazol-injected model (scPTZ), and amygdala kindling model in rats were used because they show a good clinical prediction. […] Test with Subcutaneously Pentetrazol-Injected Model (scPTZ) Similar to Test 1, Test 2 evaluates the anticonvulsant action of medicaments. However, unlike Test 1, animal model used herein represents the clinical phenotypes of generalized absence seizure and myoclonic seizure. Test compounds (50 or 100 mg/kg) were orally administered to Slc: ddY male mice (3 mice in each group, body weight 20-30 g). After an hour, pentetrazol (85 mg/kg) was subcutaneously administered. […] To the control mice, 0.5% tragacanth solution or 0.5% methylcellulose solution was administered.

For `CNC(=O)C(OC)c1ccccc1-c1ccccc1F` (stereo not drawn) [Example 201, 2-(2′-fluorobiphenyl-2-yl)-2-methoxy-N-methylacetamide], in assay [1], the responders at 50 mg/kg is 33.3% and the responders at 100 mg/kg is 66.7%. Also, in assay [2], the responders at 50 mg/kg is 33.3% and the responders at 100 mg/kg is 66.7%.
As to `CN(C)C(=O)Cc1ccccc1-c1cccc(Cl)c1` [Example 15], the responders at 50 mg/kg in assay [1] was 0%. The results for the responders at 100 mg/kg in assay [1] and in assay [2] were 66.7% and 0%, respectively.
On to `NC(=O)Cc1ccccc1-c1cc(F)c(F)c(F)c1` [Example 90, 2-(3′,4′,5′-trifluorobiphenyl-2-yl)acetamide], for which, in assay [1], the responders at 50 mg/kg is 66.7%, the responders at 100 mg/kg is 66.7% and the “anticonvulsant action in maximum electroshock seizure (MES) model test” value is recorded as “anticonvulsant action was observed”. In assay [2], the responders at 50 mg/kg is 66.7%, the responders at 100 mg/kg is 66.7% and the “anticonvulsant action in subcutaneously pentetrazol-injected model (scPTZ) test” value was “anticonvulsant action was observed”.
`CNC(=O)Cc1c(F)cccc1-c1cccc(F)c1` [Example 141]: the responders at 100 mg/kg in assay [1] is 66.7%; in assay [2], 0%.
Regarding `NC(=O)C(O)c1ccccc1-c1cccc(Cl)c1` (stereo not drawn) [Example 180], in assay [1], the responders at 50 mg/kg was 33.3% and the responders at 100 mg/kg was 100%. Besides, the responders at 100 mg/kg in assay [2] is 33.3%.
Turning to `CNC(=O)Cc1ccc(F)cc1-c1cc(Cl)cc(Cl)c1` [Example 151], the responders at 100 mg/kg in assay [1] was 66.7%; in assay [2] it was 0%.
Consider `NC(=O)Cc1ccccc1-c1cc(Cl)ccc1Cl` [Example 95, 2-(2′,5′-dichlorobiphenyl-2-yl)acetamide], for which, in assay [1], the responders at 50 mg/kg was 33.3% and the responders at 100 mg/kg was 66.7%. In assay [2], the responders at 50 mg/kg was 0% and the responders at 100 mg/kg was 100%.
Consider `CNC(=O)C(F)(F)c1ccccc1-c1ccccc1` [Example 168], for which, in assay [1], the responders at 50 mg/kg was 33.3% and the responders at 100 mg/kg is 100%. The responders at 100 mg/kg in assay [2] was 33.3%.
With `CCNC(=O)Cc1ccccc1-c1cccc(F)c1` [Example 27], in assay [1], the responders at 50 mg/kg was 0% and the responders at 100 mg/kg was 100%. In assay [2], the responders at 100 mg/kg is 33.3%.
As to `CN(C)C(=O)Cc1ccccc1-c1ccc(F)cc1` [Example 24], in assay [1], the responders at 50 mg/kg is 33.3% and the responders at 100 mg/kg is 100%. Also, the responders at 100 mg/kg in assay [2] is 0%.
As for `CNC(=O)Cc1cc(C(F)(F)F)ccc1-c1ccc(Cl)cc1` [Example 138], the responders at 100 mg/kg in assay [1] was 0%; in assay [2], 66.7%.
On to `NC(=O)Cc1cc(Cl)ccc1-c1ccc(Cl)cc1` [Example 109, 2-(4,4′-dichlorobiphenyl-2-yl)acetamide], for which, in assay [1], the responders at 50 mg/kg is 100%, the responders at 100 mg/kg was 100% and the “anticonvulsant action in maximum electroshock seizure (MES) model test” value was “anticonvulsant action was observed”. In addition, in assay [2], the responders at 50 mg/kg was 66.7%, the responders at 100 mg/kg is 100% and the “anticonvulsant action in subcutaneously pentetrazol-injected model (scPTZ) test” value is “anticonvulsant action was observed”.
For `CCNC(=O)Cc1ccccc1-c1ccccc1F` [Example 29], in assay [1], the responders at 50 mg/kg was 0% and the responders at 100 mg/kg was 66.7%. Moreover, the responders at 100 mg/kg in assay [2] is 33.3%.
Take `CN(C)C(=O)Cc1ccccc1-c1ccc(C(F)(F)F)cc1` [Example 3, N,N-dimethyl-2-[4′-(trifluoromethyl)biphenyl-2-yl]acetamide]: in assay [1], the responders at 50 mg/kg was 100% and the responders at 100 mg/kg was 100%. For the same compound, the responders at 100 mg/kg in assay [2] was 33.3%.
Consider `CNC(=O)Cc1ccccc1-c1ccc(Br)cc1` [Example 53, 2-(4′-Bromobiphenyl-2-yl)-N-methylacetamide], for which, in assay [1], the responders at 50 mg/kg was 66.7% and the responders at 100 mg/kg was 100%. Also, the responders at 100 mg/kg in assay [2] is 0%.
Regarding `NC(=O)Cc1cc(F)ccc1-c1ccc(Cl)cc1` [Example 131], the responders at 100 mg/kg in assay [1] is 100%; in assay [2] it was 0%.
Consider `NC(=O)Cc1ccccc1-c1ccc(OC(F)(F)F)c(F)c1` [Example 70, 2-[3′-fluoro-4′-(trifluoromethoxy)biphenyl-2-yl]acetamide], for which, in assay [1], the responders at 50 mg/kg was 33.3% and the responders at 100 mg/kg is 100%. In assay [2], the responders at 50 mg/kg was 66.7% and the responders at 100 mg/kg is 66.7%.
With `NC(=O)Cc1cc(C(F)(F)F)ccc1-c1ccc(Cl)cc1` [Example 137], the results for the responders at 100 mg/kg in assay [1] and in assay [2] were 0% and 66.7%, respectively.
As to `NC(=O)C(O)c1ccccc1-c1cc(F)cc(Cl)c1` (stereo not drawn) [Example 191, 2-(3′-chloro-5′-fluorobiphenyl-2-yl)-2-hydroxyacetamide], in assay [1], the responders at 50 mg/kg was 100% and the responders at 100 mg/kg was 100%. Moreover, in assay [2], the responders at 50 mg/kg was 33.3% and the responders at 100 mg/kg was 100%.
`CNC(=O)Cc1ccccc1-c1cc(F)cc(C(F)(F)F)c1` [Example 102]: the responders at 100 mg/kg is 0% in assay [1] and 66.7% in assay [2].
As to `NC(=O)Cc1ccccc1-c1cccc(Cl)c1Cl` [Example 19], in assay [1], the responders at 50 mg/kg was 33.3% and the responders at 100 mg/kg was 66.7%. In addition, in assay [2], the responders at 100 mg/kg was 0%.
With `NC(=O)Cc1ccc([N+](=O)[O-])cc1-c1ccccc1` [Example 112], the responders at 100 mg/kg in assay [1] was 33.3%. Besides, in assay [2], the responders at 50 mg/kg was 33.3% and the responders at 100 mg/kg was 66.7%.
For `CN(C)C(=O)Cc1ccccc1-c1ccccc1F` [Example 30, 2-(2′-fluorobiphenyl-2-yl)-N,N-dimethylacetamide], in assay [1], the responders at 50 mg/kg was 0% and the responders at 100 mg/kg was 100%. In assay [2], the responders at 50 mg/kg was 33.3% and the responders at 100 mg/kg was 66.7%.
Regarding `NC(=O)C1(c2ccccc2-c2cccc(F)c2)CC1` [Example 158], the responders at 100 mg/kg in assay [1] was 0%; in assay [2], 66.7%.
Regarding `NC(=O)C(O)c1ccccc1-c1cc(Cl)ccc1F` (stereo not drawn) [Example 194, 2-(5′-chloro-2′-fluorobiphenyl-2-yl)-2-hydroxyacetamide], the responders at 50 mg/kg in assay [1] and in assay [2] was 33.3% throughout. Further, the responders at 100 mg/kg in assay [1] is 100%; in assay [2] it was 66.7%.
Regarding `NC(=O)Cc1ccccc1-c1cc(F)cc(C(F)(F)F)c1` [Example 73, 2-[3′-fluoro-5′-(trifluoromethyl)biphenyl-2-yl]acetamide], in assay [1], the responders at 50 mg/kg is 33.3% and the responders at 100 mg/kg was 100%. In addition, in assay [2], the responders at 50 mg/kg is 0% and the responders at 100 mg/kg is 100%.
As to `CNC(=O)Cc1ccccc1-c1ccccc1C(F)(F)F` [Example 7, N-methyl-2-[2′-(trifluoromethyl)biphenyl-2-yl]acetamide], in assay [1], the responders at 50 mg/kg was 66.7% and the responders at 100 mg/kg was 100%. In assay [2], the responders at 50 mg/kg was 0% and the responders at 100 mg/kg was 66.7%.
Regarding `NC(=O)Cc1ccccc1-c1ccc(C(F)(F)F)cc1C(F)(F)F` [Example 74], the responders at 100 mg/kg in assay [1] is 66.7%; in assay [2], 33.3%.
`COC(C(N)=O)c1ccccc1-c1cccc(Cl)c1` (stereo not drawn) [Example 206, 2-(3′-chlorobiphenyl-2-yl)-2-methoxyacetamide]: the responders at 50 mg/kg in assay [1] is 33.3%; in assay [2], 0%. Besides, the responders at 100 mg/kg in assay [1] and in assay [2] was 66.7% throughout.
For `NC(=O)Cc1ccccc1-c1ccccc1C(F)(F)F` [Example 6], in assay [1], the responders at 50 mg/kg was 0% and the responders at 100 mg/kg was 100%. The responders at 100 mg/kg in assay [2] is 33.3%.
As to `NC(=O)Cc1ccccc1-c1ccc(Cl)c(C(F)(F)F)c1` [Example 75, 2-[4′-chloro-3′-(trifluoromethyl)biphenyl-2-yl]acetamide], the responders at 50 mg/kg is 0% in assay [1] and 33.3% in assay [2]. Further, the responders at 100 mg/kg in assay [1] was 100%; in assay [2], 66.7%.
On to `COC(C(=O)N(C)C)c1ccccc1-c1ccccc1` (stereo not drawn) [Example 63, 2-(biphenyl-2-yl)-2-methoxy-N,N-dimethylacetamide], for which the responders at 50 mg/kg was 0% in assay [1] and 33.3% in assay [2]. The responders at 100 mg/kg in assay [1] and in assay [2] was 66.7% throughout.

Values taken from US20120142771A1, “BIPHENYLACETAMIDE DERIVATIVE” (Dainippon Sumitomo Pharma Co., Ltd., priority 2008, published 2012).
